Eight compounds from patent US4321271A, “Heterocyclic and aliphatic growth promotors” (Beecham Group Limited, priority 1979, dated 1982) can be followed below.

Usually inhibition stands for the change of the read-out against control, counted positive when it falls.

Like-named read-outs stand apart in the source and are kept apart here.

One experiment relates to rumen fluid. The experiment can be described thus: In vitro incubation of buffered rumen fluid: volatile fatty acids, methane inhibition and hydrogen. In kind it is cell-based, sheep. The conditions noted are these: 20 h; for % hydrogen present: headspace gas; for Molar % VFA Acetate / Molar % VFA Butyrate / Molar % VFA Propionate / TVFA: sheep rumen fluid. How it is done: The compounds were tested for their ability to reduce or inhibit methane production and to enhance propionate formation. The method used is as follows:
The screening system is in vitro incubation of buffered rumen fluid with, or without, the addition of the test compound.
Rumen fluid is removed by suction from two rumen-fistulated sheep, just before feeding. The fluid is strained and mixed. The incubation is for twenty hours in a shaking water-bath at 39° C. Each incubation flask contains: 30 ml McDougall's bicarbonate buffer-pH 6.7-6.9, 10 ml strained rumen fluid, 200 mg substrate (the substrate is a ground sample of the diet on which the sheep has been fed) and 1 ml 10% aqueous ethanol containing 0.2% Tween 80 and the compound under examination. Samples are taken at the end of the incubation period for analysis of headspace gases and volatile fatty acids, by g.l.c. […]

The next experiment deals with methanogenesis. As to the kind of experiment: In vivo "gas collection screen" in sheep (respirometer): methanogenesis and hydrogen evolution. The conditions noted are these: sheep 50 kg, in diet, 75 mg/day, 5 week period. How it is done: In vivo Studies in a "gas collection screen":
A Group of 4, 50 kg Sheep were fed diets containing the compound of Example 6 over 5 week period. A different sheep from each group was put into a respirometer for 24 hours each day. Each sheep was thus monitored once in every […]. Gas flow was maintained by a peristatic pump and measured using a commercial gas meter and a sub-sample collected in a butyl-rubber inner tube. Gas analysis was carried out by gas chromatograph using a R/E 204 gas chromatograph with both electron capture and […] detectors.
During a run-in control period it was found the sheep produced 19.2±0.4 liters methane/day and not more than 1.5 liters Hydrogen/day.
The compounds were stable in the feed over the period of the study. By feeding measured amounts to the sheep (no refusals) it was possible to "dose" each sheep with 75 mg/day.

[1] abbreviates: Ovis aries, read-out: VFA production % difference from control, Acetate.
The mark [2] stands for this setting: Ovis aries, read-out: VFA production % difference from control, Butyrate.
Setting [3] is: Ovis aries, read-out: VFA production % difference from control, Propionate.
Where [4] appears, read: Ovis aries, read-out: VFA production % difference from control, TVFA.
Where [5] appears, read: Ovis aries, 10 ppm/flask, 39° C.

Regarding `CN1CCN(CC(O)C(Cl)(Cl)Cl)CC1` (stereo not drawn) [Compound A, reference compound], in the experiment with rumen fluid (10 ppm/flask, 39° C), the “% hydrogen present” value is given as 0.062%, the “Molar % VFA Acetate” value is on record as 65.3%, the “Molar % VFA Butyrate” value is 9.13% and the “Molar % VFA Propionate” value was 21.9%. Further, in the experiment with rumen fluid (10 ppm/flask, 39° C), the TVFA was 56.7 μM/ml. Besides, the percent change in VFA production versus control at 10 ppm in the experiment with rumen fluid (setting [1]) is -35%. Further, the percent change in VFA production versus control at 10 ppm in the experiment with rumen fluid (setting [2]) was 9%. Also, the percent change in VFA production versus control at 10 ppm in the experiment with rumen fluid (setting [3]) was determined as 19.9%. Also, in the experiment with rumen fluid (setting [4]), the percent change in VFA production versus control at 10 ppm was -22.6%. Further, 10 ppm produced 50.6% inhibition in the experiment on rumen fluid (setting [5]).

With `CNCC(O)C(Cl)(Cl)Cl` (stereo not drawn) [Example 1, 1,1,1-Trichloro-3-methylaminopropan-2-ol], in the experiment on rumen fluid (10 ppm/flask, 39° C), the “% hydrogen present” value was 1.43%, the “Molar % VFA Acetate” value is 55.3%, the “Molar % VFA Butyrate” value is recorded as 12.1% and the “Molar % VFA Propionate” value is 30.4%. The TVFA with rumen fluid (10 ppm/flask, 39° C) is recorded as 40.6 μM/ml. In addition, the percent change in VFA production versus control at 10 ppm with rumen fluid (setting [1]) was -44.7%. Moreover, the percent change in VFA production versus control at 10 ppm in the experiment with rumen fluid (setting [2]) was -29.7%. In addition, the percent change in VFA production versus control at 10 ppm in the experiment with rumen fluid (setting [3]) was 22.3%. Besides, the percent change in VFA production versus control at 10 ppm in the experiment on rumen fluid (setting [4]) was -28.2%. The compound also returned an inhibition at 10 ppm in the experiment with rumen fluid (setting [5]) of 100%.

Regarding `CN(C)CC(O)C(Cl)(Cl)Cl` (stereo not drawn) [Example 2, 1,1,1-Trichloro-3-dimethylaminopropan-2-ol], in the experiment on rumen fluid (10 ppm/flask, 39° C), the “% hydrogen present” value was 1.61%, the “Molar % VFA Acetate” value is 55.6%, the “Molar % VFA Butyrate” value came out at 12.2% and the “Molar % VFA Propionate” value amounted to 29.7%. Further, the TVFA in the experiment with rumen fluid (10 ppm/flask, 39° C) came to 43.9 μM/ml. Moreover, the percent change in VFA production versus control at 10 ppm in the experiment with rumen fluid (setting [1]) is -35.5%. Moreover, the percent change in VFA production versus control at 10 ppm in the experiment on rumen fluid (setting [2]) was -18.1%. Further, the percent change in VFA production versus control at 10 ppm with rumen fluid (setting [3]) was determined as 31.5%. The percent change in VFA production versus control at 10 ppm with rumen fluid (setting [4]) was -18.4%. In the experiment on rumen fluid (setting [5]), this compound registered an inhibition at 10 ppm of 100%.

Take `CCN(CC)CC(O)C(Cl)(Cl)Cl` (stereo not drawn) [Example 3, 1,1,1-Trichloro-3-diethylaminopropan-2-ol]: in the experiment with rumen fluid (10 ppm/flask, 39° C), the “% hydrogen present” value amounted to 1.27%, the “Molar % VFA Acetate” value is recorded as 54.2%, the “Molar % VFA Butyrate” value is recorded as 12.4% and the “Molar % VFA Propionate” value worked out at 30.0%. The same compound came in with a TVFA in the experiment with rumen fluid (10 ppm/flask, 39° C) of 43.3 μM/ml. Besides, the percent change in VFA production versus control at 10 ppm in the experiment on rumen fluid (setting [1]) was -42.3%. Besides, in the experiment on rumen fluid (setting [2]), the percent change in VFA production versus control at 10 ppm was -20%. In addition, the percent change in VFA production versus control at 10 ppm with rumen fluid (setting [3]) is 26.8%. For the same compound, the percent change in VFA production versus control at 10 ppm in the experiment with rumen fluid (setting [4]) is -23%. The inhibition at 10 ppm in the experiment with rumen fluid (setting [5]) was 100%.

For `CC(C)CNCC(O)C(Cl)(Cl)Cl` (stereo not drawn) [Example 4, 1,1,1-Trichloro-3-isobutylaminopropan-2-ol], in the experiment on rumen fluid (10 ppm/flask, 39° C), the “% hydrogen present” value is 1.07%, the “Molar % VFA Acetate” value is listed as 55.3%, the “Molar % VFA Butyrate” value is reported as 12.3% and the “Molar % VFA Propionate” value is on record as 30.0%. In addition, in the experiment with rumen fluid (10 ppm/flask, 39° C), the TVFA amounted to 40.1 μM/ml. In addition, the percent change in VFA production versus control at 10 ppm with rumen fluid (setting [1]) is -45.7%. Also, the percent change in VFA production versus control at 10 ppm with rumen fluid (setting [2]) is -29%. Moreover, the percent change in VFA production versus control at 10 ppm in the experiment with rumen fluid (setting [3]) amounted to 18.8%. In the experiment with rumen fluid (setting [4]), the percent change in VFA production versus control at 10 ppm is -29.4%. The compound also registered an inhibition at 10 ppm in the experiment on rumen fluid (setting [5]) of 100%.

For `OC(CNC1CCCCC1)C(Cl)(Cl)Cl` (stereo not drawn) [Example 5, 1,1,1-Trichloro-3-cyclohexylaminopropan-2-ol], in the experiment on rumen fluid (10 ppm/flask, 39° C), the “% hydrogen present” value was 1.01%, the “Molar % VFA Acetate” value was 56.7%, the “Molar % VFA Butyrate” value is recorded as 10.21% and the “Molar % VFA Propionate” value was 31.1%. This compound yielded a TVFA in the experiment on rumen fluid (10 ppm/flask, 39° C) of 44.2 μM/ml. The percent change in VFA production versus control at 10 ppm in the experiment on rumen fluid (setting [1]) was -31.1%. The percent change in VFA production versus control at 10 ppm in the experiment with rumen fluid (setting [2]) worked out at 14.6%. Further, the percent change in VFA production versus control at 10 ppm in the experiment with rumen fluid (setting [3]) came to 32.5%. The percent change in VFA production versus control at 10 ppm with rumen fluid (setting [4]) was -11.8%. In the experiment with rumen fluid (setting [5]), this compound showed an inhibition at 10 ppm of 100%.

As for `OC(CN1CCCCC1)C(Cl)(Cl)Cl` (stereo not drawn) [Example 6, 1,1,1-Trichloro-3-(N-piperidino)propan-2-ol], in the experiment on methanogenesis, the “% inhibition of methanogenesis” value is on record as 9.1% and the Hydrogen evolution is recorded as 2.1 liters/24h. Further, in the experiment on rumen fluid (10 ppm/flask, 39° C), the “% hydrogen present” value was 1.34%, the “Molar % VFA Acetate” value was determined as 57.7%, the “Molar % VFA Butyrate” value was 9.64% and the “Molar % VFA Propionate” value is listed as 30.7%. Also, the TVFA with rumen fluid (10 ppm/flask, 39° C) came out at 45.3 μM/ml. In addition, in the experiment on rumen fluid (setting [1]), the percent change in VFA production versus control at 5 µg/mL is -19.1% and the percent change in VFA production versus control at 10 ppm is -25.8%. In addition, in the experiment on rumen fluid (setting [2]), the percent change in VFA production versus control at 5 µg/mL came to 27.7% and the percent change in VFA production versus control at 10 ppm was determined as 7.9%. In the experiment with rumen fluid (setting [3]), the percent change in VFA production versus control at 5 µg/mL was found to be 23% and the percent change in VFA production versus control at 10 ppm came out at 34.1%. Besides, in the experiment on rumen fluid (setting [4]), the percent change in VFA production versus control at 5 µg/mL is -7.1% and the percent change in VFA production versus control at 10 ppm is -8.3%. The same compound returned an inhibition at 10 ppm in the experiment with rumen fluid (setting [5]) of 100%. In the experiment on rumen fluid (Ovis aries, tested at 5 ppm level, 39° C), this compound returned an inhibition at 5 µg/mL of 32.2%. In addition, in the experiment on rumen fluid (tested at 5 ppm level, 39° C), the “% hydrogen present” value was 0.09%.

For the compound `OC(CN1CCCC1)C(Cl)(Cl)Cl` (stereo not drawn) [Example 7, 1,1,1-Trichloro-3-(N-pyrrolidino)propan-2-ol], in the experiment on rumen fluid (10 ppm/flask, 39° C), the “% hydrogen present” value is reported as 1.18%, the “Molar % VFA Acetate” value is reported as 57.7%, the “Molar % VFA Butyrate” value is 9.67% and the “Molar % VFA Propionate” value amounted to 30.5%. The TVFA in the experiment on rumen fluid (10 ppm/flask, 39° C) came to 44.6 μM/ml. The percent change in VFA production versus control at 10 ppm with rumen fluid (setting [1]) was -27.6%. For the same compound, in the experiment on rumen fluid (setting [3]), the percent change in VFA production versus control at 10 ppm worked out at 30.5%. The percent change in VFA production versus control at 10 ppm in the experiment with rumen fluid (setting [4]) was -10.4%. For the same compound, at 10 ppm the inhibition in the experiment with rumen fluid (setting [5]) was 100%.
